Structures can show the parent of a compound that is named as a salt. Marks after values point to notes of the source that are not given here.
Tests used:
Human β1 [1] = biological target: T1, Human β1 (Homo sapiens, UniProt P08588); assay: Competitive binding (Cerep 14320), human β1; settings: HEK (Human β1)
T1 construct: host or cells: HEK
From the text: (§1) The Active Agent (MN-221 a/k/a bedoradrine or its pharmaceutically acceptable salts) administered intravenously allows it to distribute and partition into the congested lung tissue of AEA patients and allow bronchodilation without undue cardiovascular side effects. Table 1, below, provides an example of the adrenoceptor action profile for MN-221 determined experimentally: [table]

telemetered dogs = assay: Cardiovascular safety in telemetered dogs, i.v. MN-221 with nebulized albuterol; type: in vivo; settings: for heart rate, agent alone: albuterol inhaled 5 or 10 ug/kg, MN-221 i.v. over 15 min 0.3, 3 or 30 ug/kg; for MAP or QTc, agent alone: either agent at any dose
Experimental: In a separate study with telemetered dogs at the Lovelace Respiratory Research Institute, the effect of i.v. MN-221 administration in addition to nebulized albuterol was performed to assess cardiovascular changes and safety of the combination therapy. Albuterol was administered by inhalation at 5 or 10 ug/kg and MN-221 was intravenously administered over 15 min at 0.3, 3, or 30 ug/kg. […] See, FIG. 4.

β1 (GP Rt atrium) = assay: Ex vivo organ bioassay (Cerep 13271), GP right atrium
From the text: as §1

[2] = biological target: T2, β2 (GP carbachol-tx trachea) (Cavia porcellus, UniProt Q8K4Z4); assay: Ex vivo organ bioassay (Cerep 13271), GP carbachol-treated trachea
T2 construct: tissue Cerep; host or cells: guinea pig trachea, carbachol-contracted
From the text: as §1

Hu β2 [3] = biological target: T3, Hu β2 (Homo sapiens, UniProt P07550); assay: Cell bioassay, cAMP accumulation, human β2 in CHO; type: cell-based
T3 construct: host or cells: CHO
From the text: as §1

patients with severe AEA = assay: Clinical study of MN-221 plus SOC in emergency department patients with AEA; type: in vivo, humans
Experimental: MN-221 was tested at escalating doses of 240 μg to 1,080 μg in patients with AEA treated in emergency departments (EDs). The study included 29 (13 treated with SOC only and 16 treated with MN-221 in combination with SOC) patients with severe AEA. All patients were administered SOC treatment as follows: supplemental oxygen given to maintain oxygen saturation measured by pulse oximetry of ≧90%; two doses of inhaled beta2-agonist (in this study, albuterol 5 mg) via nebulizer given approximately every 20 minutes; simultaneously with two doses of an inhaled anti-cholinergic agent (in this study, ipratropium 0.5 mg) via nebulizer given approximately every 20 minutes; one dose of corticosteroid given orally (in this study, prednisone 60 mg) or intravenously (in this study, methylprednisolone 125 mg), and intravenous magnesium sulfate (2 gm, diluted with 50-100 mL normal saline) and given over 10 minutes to patients with an FEV1≦25% of predicted upon ED presentation treatment.
MN-221 was administered at the following doses: 16 μg/min for 15 minutes (total of 240 μg); 30 μg/min for 15 minutes (total of 450 μg); 16 μg/min for 15 minutes; 8 μg/min for 105 minutes (total of 1,080 μg). A lyophilized unit dose for of MN-221, containing 2 mg MN-221 and lactose in a 10 mL vial was employed in the administration. Vials containing 2 mg (2000 μg) of MN-221 and vials containing placebo were reconstituted as follows. 4 mL of 5% dextrose in water was added to each 10 mL vial containing MN-221 to make 500 μg/mL stock solution (2000 μg/4 mL=500 μg/mL). 2 mL (1,000 μg) of stock solution was added to 123 mL 5% dextrose in water to make the total volume of 125 mL (123 mL+2 mL=125 mL). Final MN-221 solution equal to 1,000 μg/125 mL or 8 μg/mL was prepared this way.
Patients were administered SOC treatment (inhaled albuterol, 2.5 mg via nebulizer up to every 20 minutes) and ipratropium (0.5 mg via nebulizer up to every 20 minutes) in addition to treatment with MN-221 or placebo.

Human β1 [4] = biological target: T1, Human β1; assay: Cell bioassay, cAMP accumulation, human β1 in HEK; type: cell-based; settings: read-out: cell bioassay (EC50 cAMP accum.) β1
From the text: as §1

Hu β2 [5] = biological target: T3, Hu β2; assay: Competitive binding (Cerep 14320), human β2
From the text: as §1

ragweed sensitized dogs = assay: Reversal of ragweed-induced bronchoconstriction in sensitized dogs; type: in vivo; settings: i.v. 0.04 to 0.4 mg/kg; between 0.75 and 6.7 min after dosing; p<0.001 up to 4.5 min, p<0.01 up to 6.7 min

T3 sequence (P07550 whole entry): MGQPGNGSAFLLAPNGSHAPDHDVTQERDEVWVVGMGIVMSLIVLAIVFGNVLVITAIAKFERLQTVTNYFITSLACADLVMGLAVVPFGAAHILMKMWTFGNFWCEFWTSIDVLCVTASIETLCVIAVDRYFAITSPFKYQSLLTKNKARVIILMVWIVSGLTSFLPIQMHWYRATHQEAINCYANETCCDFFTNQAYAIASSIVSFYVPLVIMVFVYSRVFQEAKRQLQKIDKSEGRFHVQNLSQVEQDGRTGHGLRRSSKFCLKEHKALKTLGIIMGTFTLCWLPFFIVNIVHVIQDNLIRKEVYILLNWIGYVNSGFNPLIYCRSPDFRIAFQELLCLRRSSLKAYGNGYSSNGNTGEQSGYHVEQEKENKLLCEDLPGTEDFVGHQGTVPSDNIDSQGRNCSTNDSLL
T2 sequence (Q8K4Z4 whole entry): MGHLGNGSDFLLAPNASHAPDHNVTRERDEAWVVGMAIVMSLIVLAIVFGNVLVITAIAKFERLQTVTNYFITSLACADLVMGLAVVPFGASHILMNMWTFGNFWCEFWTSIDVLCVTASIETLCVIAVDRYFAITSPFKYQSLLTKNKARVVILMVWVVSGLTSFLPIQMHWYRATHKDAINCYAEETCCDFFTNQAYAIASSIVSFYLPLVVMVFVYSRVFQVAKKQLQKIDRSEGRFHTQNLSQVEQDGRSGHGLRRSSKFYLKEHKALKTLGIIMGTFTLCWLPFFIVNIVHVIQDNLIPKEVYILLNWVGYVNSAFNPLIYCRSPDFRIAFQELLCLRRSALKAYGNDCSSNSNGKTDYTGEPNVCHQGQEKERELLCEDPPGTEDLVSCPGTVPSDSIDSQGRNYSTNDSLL
T1 sequence (P08588 whole entry): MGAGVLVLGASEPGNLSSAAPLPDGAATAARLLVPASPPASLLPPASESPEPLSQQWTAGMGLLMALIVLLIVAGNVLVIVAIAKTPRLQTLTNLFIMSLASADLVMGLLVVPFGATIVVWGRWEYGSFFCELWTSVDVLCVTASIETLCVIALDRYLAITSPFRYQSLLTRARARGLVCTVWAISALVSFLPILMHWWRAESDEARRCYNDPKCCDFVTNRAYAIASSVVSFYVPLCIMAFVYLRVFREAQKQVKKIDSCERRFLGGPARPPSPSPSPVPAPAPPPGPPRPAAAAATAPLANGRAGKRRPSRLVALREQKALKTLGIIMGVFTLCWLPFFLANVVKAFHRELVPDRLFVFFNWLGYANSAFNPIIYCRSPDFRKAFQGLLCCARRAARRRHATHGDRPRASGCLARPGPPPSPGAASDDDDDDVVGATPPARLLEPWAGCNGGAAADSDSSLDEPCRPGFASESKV

CN(C)C(=O)COc1ccc2c(c1)C[C@@H](NC[C@H](O)c1ccc(O)c(CCO)c1)CC2 [MN-221, acetamide, N,N-dimethyl-2-[[(7S)-5,6,7,8-tetrahydro-7-[[(2R)-2-hydroxy-2-[4-hydroxy-3-(2-hydroxyethyl)phenyl]ethyl]amino]-2-naphthalenyl]oxy], sulfate]
IC50 (Human β1 [1]): 11800 nM
MAP, QTc with combination therapy (telemetered dogs; MN-221 plus albuterol): not adversely changed
heart rate, agent alone (telemetered dogs): increased heart rate to a modest level
heart rate, MN-221 added on top of albuterol (telemetered dogs; clinically-relevant doses of both): no additional increase in heart rate
MAP or QTc, agent alone (telemetered dogs): No adverse changes
agonist character (β1 (GP Rt atrium); GP Rt atrium): a partial agonist.
ex vivo Organ bioassay est EC39 β1 (β1 (GP Rt atrium); GP Rt atrium (% isoprot), EC39 = 39% of isoproterenol maximum response): ~1* μM
Emax (β1 (GP Rt atrium); GP Rt atrium, % of isoproterenol maximum response): Emax = 39%
EC50 ([2]; GP carbachol-tx trachea (% salbut)): 28 nM
ex vivo Organ bioassay β1/β2 ([2]; ratio of EC39 (atrium) to EC50 (trachea)): 36
EC50 (Hu β2 [3]; CHO (Hu β2), read-out: cell bioassay (EC50 cAMP accum.) β2): 13 nM
cell bioassay cAMP accum. β1/β2 (Hu β2 [3]; ratio of EC50 β1 to β2): >3000
safety (ECG, laboratory, adverse experience data) (patients with severe AEA; MN-221 added to standardized care): No safety concerns
heart rate change in patients (patients with severe AEA; MN-221 combined with SOC, FIG. 2): absence of significant heart rate increase
Improvement in FEV1 values versus SOC (patients with severe AEA; MN-221 in addition to SOC treatment): generally appeared to be greater
hospitalization rate (patients with severe AEA; MN-221 with SOC, 4 of 16 patients, SOC only 54% (7 of 13)): 25%
EC50 (Human β1 [4]): > 50000 nM
IC50 (Hu β2 [5]; CHO (Hu β2)): 270 nM
Competitive Binding β1/β2 (Hu β2 [5]; ratio of IC50 β1 to β2): 42
reversal of ragweed-induced bronchoconstriction (ragweed sensitized dogs): statistically significant, and near maximal reversal of bronchoconstriction

CC(C)(C)NCC(O)c1ccc(O)c(CO)c1 (stereo not shown) [albuterol, reference compound]
heart rate, agent alone (telemetered dogs): increased heart rate to a modest level
MAP or QTc, agent alone (telemetered dogs): No adverse changes
